Source: patent US20210259954A1, “CILIA-TARGETING NANOPARTICLES” (Chapman University, priority 2019, published 2021)

What was measured:
[1] = Pharmacokinetics of fenoldopam in mice (Example 1); format: in vivo, mouse; details: 30-minute infusion vs bolus of fenoldopam-loaded CTNDDS
Experimental: The pharmacokinetics of different NPs treated mice were studied. […] All drugs were extracted from plasma samples and HPLC analysis performed. In the biodistribution studies, whole organs from the fluorescent-labelled NPs treated mice (heart, kidney, liver, spleen and lung) were collected, homogenized and measured for fluorescence intensity to assess the amount of NP distribution in different organs at 24- and 72-hours after treatments. For the in vivo toxicity studies, 200 μL of blood samples were collected from different treatments (PBS, CT-DAu-NPs or CT-PLGA-NPs). Biochemistry was performed using biochemical analyzer (VetScan VS2).

primary cilia = experiment: Ca2+ and NO imaging under fluid shear stress (Example 1); format: cell-based; details: fluid shear 0.5 dyn/cm^2, vs corresponding controls
Experimental: Ca^2+ and NO Imaging. For monolayer cell populations, intracellular measurements were obtained. […] After washed to remove excess Fura-2 AM, cytosolic Ca^2+ images were captured every second by recording Ca^2+-bound Fura-2 AM excitation fluorescence at 340/380 nm and emission at 510 nm. For intracellular nitric oxide (NO) measurements, the cells were incubated for 30 minutes at 37° C. with 20 μM DAF-FM (Cayman Chemicals). NO was then measured every second at the excitation and emission wavelengths of 495 and 515 nm, respectively. The cells were placed in PBS during the experiments and observed with a Nikon Eclipse Ti microscope. Fluid shear stress was then applied to cells through InsTech P720 peristaltic pumps with an inlet and outlet setup. The fluid was perfused through cell monolayers at a sub-minimal shear stress of 0.5 dyn/cm^2.
In single-cell studies, cells were grown on 2% Formvar® and transfected with the Ca^2+ fluorescence reporter 5HT6-mCherry-G-GECO1.0 (Addgene) using the JetPrime transfection reagent (Polyplus transfection). The shear stress ranged from 0.01-1.0 dyn/cm^2 and was accurately measured and controlled at all times. […] For these experiments, none of the CT-NPs contained AF594 dye to avoid interference with the mCherry signal. Confocal laser scanning microscopy in fast-scan mode was used to avoid potential excessive photo bleaching. […]

[2] = tested on: Tie2Cre⋅Pkd2^flox/flox mice; experiment: Working heart perfusion system, hearts of treated Pkd2 mice (Example 2); format: in vivo, mouse
Experimental: All mouse experiments were performed by two operators who were blinded to the experimental conditions. […] One-week-old Tie2Cre⋅Pkd2^WT/WT (with Cre activation; control group), Tie2Cre⋅Pkd2^flox/flox (without Cre activation; control group) or Tie2Cre⋅Pkd2^flox/flox (with Cre activation; experimental group) mice were intraperitoneally injected with 250 μg of tamoxifen in a 50-μL volume daily for five consecutive days.
The ex vivo measurements of heart parameters were recorded using a mouse working heart system from Emka Technologies to study heart function independently of neuronal innervation or humoural effects. This system collected data regarding the cardiac contractile strength, electrical heart propagation or ECG and other cardiac functions, including the HR, LVP, LVV, left atrial pressure (LAP), aortic out flow (AOF), stroke volume (SV), cardiac output (CO), end diastolic/systolic volume (Edv-Esv), rate of left atrial pressure raise (+dp/dt) and fall (−dt/dt), and the preload, afterload, and main aortic pressure. Heparin (100 units, IP), xylazine (10-15 mg/kg, IP), and ketamine (200-350 mg/kg, IP) were used to prevent blood coagulation in the coronary arteries and to anaesthetize the mice. After cannulation, the heart was perfused with Krebs-Ringer superfusion solution (in mM: 125 NaCl, 2.5 KCl, 1.25 NaH2PO4, 2 CaCl2, 1 MgCl2, 25 NaHCO3 and 25 glucose). Throughout the experiment, the solution was continuously bubbled with carbogen (95% O2 and 5% CO2) to reach pH 7.4 at 38.0° C. Stress tests were performed on the heart by perfusing epinephrine (4 μg/L) or diltiazem (0.08 μg/L). Cardiac function was plotted in a loop diagram showing the LVV-LVP relationship (volume-pressure loop).

p-ERK = experiment: Immunoblotting of phosphorylated ERK; format: cell-based
Experimental: Immunoblotting. […] Samples were kept on ice during sonication to prevent overheating. Samples were then centrifuged at 15,000 rpm for 20 min, and the supernatants were collected and subjected to protein quantification. The PAGE (polyacrylamide gel electrophoresis) on 6-10% SDS gels was performed followed by semi-dry transfer to PVDF membranes using a Bio-Rad Trans-Blot Turbo Transfer System and detection using antibodies against t-ERK (1:1,000), p-ERK (1:1,000), NOS (1:200), and GAPDH (1:2,000) (Cell Signaling Technology). Blots were scanned with both calorimetry to image molecular markers and chemiluminescence to capture the protein signal intensity using a Bio-Rad imager.

In the case of `Oc1ccc(C2CNCCc3c2cc(O)c(O)c3Cl)cc1` (stereo not drawn) [Fenoldopam, fenoldopam], the “total plasma concentration of fenoldopam (area under the curve, one hour)” value [1] is reported as “significantly higher”, the NO biosynthesis (primary cilia) is reported as “significantly increased” and the “cytosolic Ca^2+” value (primary cilia) is reported as “significantly increased cytosolic Ca^2+”. The “CO, cardiac output” value ([2]; diltiazem stress) was 1783 ± 32 µL/min, the “EDPVR, end-diastolic pressure volume relation” value ([2]; diltiazem stress) was 0.14 ± 0.01 mmHg/μL and the “EF, ejection fraction” value ([2]; diltiazem stress) was 49.5 ± 0.3%. For the same compound, the “ESPVR, end-systolic pressure volume relation” value ([2]; diltiazem stress) was 2.21 ± 0.03 mmHg/μL, the “HR, heart rate” value ([2]; diltiazem stress) was 94 ± 11 beat/min and the “LV EDP, end-diastolic pressure” value ([2]; diltiazem stress) was 5.7 ± 0.2 mmHg. For the same compound, the “LV EDV, end-diastolic volume” value ([2]; diltiazem stress) was 40.0 ± 0.4 µL, the “LV ESP, end-systolic pressure” value ([2]; diltiazem stress) was 35.5 ± 0.5 mmHg and the “LV ESV, end-systolic volume” value ([2]; diltiazem stress) was 20.2 ± 0.1 µL. The “LV Pmax, systolic pressure” value ([2]; diltiazem stress) was 44.7 ± 0.7 mmHg, the “SV, stroke volume” value ([2]; diltiazem stress) was 19.8 ± 0.3 µL and the “SW, stroke work” value ([2]; diltiazem stress) was 772 ± 10 mmHg · μL. For the same compound, the “dP/dtmax, maximum rate of LV pressure rise” value (shortened to “dP/dtmax, maximum rate”) ([2]; diltiazem stress) was 4020 ± 642 mmHg/s, the “dP/dtmin, maximum rate of LV pressure fall” value (“dP/dtmin, maximum rate” below) ([2]; diltiazem stress) was −1537 ± 97 mmHg/s and the “EDPVR, end-diastolic pressure volume relation” value ([2]; epinephrine stress) was 0.16 ± 0.01 mmHg/μL. For the same compound, the “EF, ejection fraction” value ([2]; epinephrine stress) was 77.7 ± 2.0%, the “ESPVR, end-systolic pressure volume relation” value ([2]; epinephrine stress) was 9.8 ± 0.88 mmHg/μL and the “HR, heart rate” value ([2]; epinephrine stress) was 216 ± 47 beat/min. The “LV EDP, end-diastolic pressure” value ([2]; epinephrine stress) was 6.4 ± 0.5 mmHg, the “LV EDV, end-diastolic volume” value ([2]; epinephrine stress) was 39.9 ± 0.1 µL and the “LV ESP, end-systolic pressure” value ([2]; epinephrine stress) was 64.2 ± 0.9 mmHg. For the same compound, the “LV ESV, end-systolic volume” value ([2]; epinephrine stress) was 8.9 ± 0.8 µL, the “LV Pmax, systolic pressure” value ([2]; epinephrine stress) was 85.6 ± 1.2 mmHg and the “SV, stroke volume” value ([2]; epinephrine stress) was 31.0 ± 0.8 µL. For the same compound, the “SW, stroke work” value ([2]; epinephrine stress) was 2569 ± 53 mmHg · μL, the “dP/dtmax, maximum rate” value ([2]; epinephrine stress) was 17130 ± 239 mmHg/s and the “dP/dtmin, maximum rate” value ([2]; epinephrine stress) was −3844 ± 278 mmHg/s. For the same compound, the “CO, cardiac output” value ([2]; vehicle) was 3402 ± 92 µL/min, the “EDPVR, end-diastolic pressure volume relation” value ([2]; vehicle) was 0.13 ± 0.01 mmHg/μL and the “EF, ejection fraction” value ([2]; vehicle) was 62.5 ± 0.2%. For the same compound, the “ESPVR, end-systolic pressure volume relation” value ([2]; vehicle) was 4.6 ± 0.04 mmHg/μL, the “HR, heart rate” value ([2]; vehicle) was 136 ± 26 beat/min and the “LV EDP, end-diastolic pressure” value ([2]; vehicle) was 5.0 ± 0.1 mmHg. The “LV EDV, end-diastolic volume” value ([2]; vehicle) was 40.0 ± 0.1 µL, the “LV ESP, end-systolic pressure” value ([2]; vehicle) was 52.2 ± 0.5 mmHg and the “LV ESV, end-systolic volume” value ([2]; vehicle) was 15.0 ± 0.1 µL. For the same compound, the “LV Pmax, systolic pressure” value ([2]; vehicle) was 69.7 ± 0.7 mmHg, the “SV, stroke volume” value ([2]; vehicle) was 25.0 ± 0.1 µL and the “SW, stroke work” value ([2]; vehicle) was 1616 ± 70 mmHg · μL. The “dP/dtmax, maximum rate” value ([2]; vehicle) was 7524 ± 71 mmHg/s, the “dP/dtmin, maximum rate” value ([2]; vehicle) was −1625 ± 27 mmHg/s and the ERK phosphorylation (p-ERK) was “increased ERK phosphorylation”.
